The values below come from US12448400B2, “KRAS G12D modulating compounds” (priority 2023, dated 2025).

Read-outs that look alike come from different tables or passages of the source.

Experiment [1] has as its system GP2D (KRAS G12D) cells. Nature of the experiment: 2D cell viability assay (CellTiter-Glo). The note with it: GP2D cells, 4 days, CellTiter-Glo luminescence, read-out: G12D 2D EC50. The experiment is classed as cell-based. The procedure: Example B. 2D Cell Viability Assay
Compounds were tested in a 384-well format for their ability to inhibit the viability of GP2D (KRAS G12D) cells in 2D assays. Compounds were serially diluted (1:3) in DMSO. The LabCyte ECHO Acoustic dispenser system was used to pre-spot assay plates with 200 nL of test molecule per well. 1000 cells/well (40 μL volume per well) in RPMI medium with 10% FBS, and Penicillin-Streptomycin-Glutamine were plated in pre-spotted 384-well plates (Greiner, Catalog #781076) on the BioTEK EL406 liquid dispenser with a 5 μL dispensing cassette (BioTek 7170011). The plates were incubated at 37° C., 5% CO2 for 4 days before addition of CellTiter-Glo (CTG) reagent and measurement of luminescence signal. EC50 values were defined as the compound concentration that causes a 50% decrease in luminescence signal and were calculated using a sigmoidal dose-response model to generate curve fits.
On the technique in general: Cellular ATP, detected with luciferase, serves as a proxy for viable cell number.

For experiment [2], the target named is GDP-loaded KRAS G12D (Homo sapiens, UniProt P01116, G12D). Nature of the experiment: KRAS G12D (GDP) biochemical assay, TR-FRET probe displacement. The experiment is classed as binding. The note with it: 0.5 nM enzyme, 30 min pre-incubation, 2 h incubation, TR-FRET ratio; read-out: G12D IC50. As to the method:
Example A. KRAS G12D (GDP) Biochemical Assay
Compounds were tested for binding to GDP-loaded KRAS G12D in a 384-well assay format using a TR-FRET probe displacement assay in buffer consisting of 50 mM Hepes (pH 7.4), 150 mM NaCl, 5 mM MgCl2 and 0.005% Tween-20. […] Compounds were serially diluted (1:3) in DMSO. The LabCyte ECHO Acoustic dispenser system was used to pre-spot the assay plates (384-well Non-Binding Surface plates, Corning, Catalog #3824) with 50 nL of compound. The compounds were pre-incubated with 5 μL of 2× final enzyme concentration for 30 minutes before adding 5 μL of 2× final concentration of Eu-streptavidin and TR-FRET probe (10 μL final reaction volume). The plates were incubated at room temperature for 2 hours before measuring TR-FRET ratio on the Envision plate reader. IC50 values were defined as the compound concentration that causes a 50% decrease in TR-FRET ratio and were calculated using a sigmoidal dose-response model to generate curve fits.
In general terms: Time-resolved FRET reads energy transfer from a long-lived donor to a nearby acceptor.

Chain of GDP-loaded KRAS G12D (P01116 1-188 isoform P01116-2 G12D): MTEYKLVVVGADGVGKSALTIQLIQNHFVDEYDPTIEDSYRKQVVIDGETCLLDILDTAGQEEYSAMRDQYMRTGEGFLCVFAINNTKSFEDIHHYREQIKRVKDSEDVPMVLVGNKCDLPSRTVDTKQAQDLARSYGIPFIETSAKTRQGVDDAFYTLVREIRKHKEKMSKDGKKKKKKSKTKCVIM

What is called EC50 is the concentration needed to bring the measured effect to its halfway point. Usually IC50 stands for the concentration needed to halve the response being measured. Regarding `C#Cc1c(F)ccc2cc(O)cc(-c3c(F)c4c5c(nc(OC[C@@]67CCCN6C[C@H](F)C7)nc5c3F)N3C[C@H]5CC[C@H](N5)[C@H]3CCC4)c12` (atropisomer, axis not shown; (aR)) [Example 28-P, (R)-4-((1S,4R,15aR)-10,12-difluoro-8-(((2R,7aS)-2-fluorotetrahydro-1H-pyrrolizin-7a(5H)-yl)methoxy)-2,3,4,5,13,14,15,15a-octahydro-1H-1,4-epiminoazepino[1′,2′:1,8]azocino[2,3,4-de]quinazolin-11-yl)-5-ethynyl-6-fluoronaphthalen-2-ol], the EC50 in experiment [1] (96 h) is 0.13 nM. Moreover, the IC50 in experiment [2] is 0.07 nM. As to `C#Cc1c(F)ccc2cc(O)cc(-c3c(F)c4c5c(nc(OC[C@]6(C)CN(C)CC[C@@H]6C(F)F)nc5c3F)N3C[C@H]5CC[C@H](N5)[C@H]3CCC4)c12` (atropisomer, axis not shown; (aR)) [Example 78-P, (R)-4-((1S,4R,15aR)-8-(((3S,4S)-4-(difluoromethyl)-1,3-dimethylpiperidin-3-yl)methoxy)-10,12-difluoro-2,3,4,5,13,14,15,15a-octahydro-1H-1,4-epiminoazepino[1′,2′:1,8]azocino[2,3,4-de]quinazolin-11-yl)-5-ethynyl-6-fluoronaphthalen-2-ol], the EC50 in experiment [1] (96 h) is 0.14 nM. Also, the IC50 in experiment [2] turned out to be 0.04 nM.

On to `C#Cc1c(F)ccc2cc(OCc3oc(=O)oc3C)cc(-c3nc4c5c(nc(OC[C@@]67CCCN6C[C@H](F)C7)nc5c3F)N3C[C@H]5CC[C@@H]([C@@H]3[C@@H](C)C4)N5Cc3oc(=O)oc3C)c12` [Example 2, 4-(((5-ethynyl-6-fluoro-4-((5S,5aS,6S,9R)-1-fluoro-12-(((2R,7aS)-2-fluorotetrahydro-1H-pyrrolizin-7a(5H)-yl)methoxy)-5-methyl-14-((5-methyl-2-oxo-1,3-dioxol-4-yl)methyl)-4,5,5a,6,7,8,9,10-octahydro-3,10a,11,13,14-pentaaza-6,9-methanonaphtho[1,8-ab]heptalen-2-yl)naphthalen-2-yl)oxy)methyl)-5-methyl-1,3-dioxol-2-one], for which the EC50 in experiment [1] (96 h) amounted to 0.24 nM. Besides, the IC50 in experiment [2] worked out at 40 nM. In the case of `C#Cc1c(F)ccc2cc(O)cc(-c3nc4c5c(nc(OCC67CCCN6C(COC(C(F)(F)F)(C(F)(F)F)C(F)(F)F)CC7)nc5c3F)N3CC5CCC(C3CC4)N5Cc3oc(=O)oc3C)c12` [Example 68, 4-(((8aR,9S,12R)-5-(8-ethynyl-7-fluoro-3-hydroxynaphthalen-1-yl)-4-fluoro-2-(((3S,7aS)-3-(((1,1,1,3,3,3-hexafluoro-2-(trifluoromethyl)propan-2-yl)oxy)methyl)tetrahydro-1H-pyrrolizin-7a(5H)-yl)methoxy)-7,8,8a,9,10,11,12,13-octahydro-1,3,6,13a,14-pentaaza-9,12-methanonaphtho[1,8-ab]heptalen-14-yl)methyl)-5-methyl-1,3-dioxol-2-one], the EC50 in experiment [1] is 0.65 nM.

`C#Cc1c(F)ccc2cc(N)cc(-c3nc4c5c(nc(OC[C@@]67CCCN6C[C@H](F)C7)nc5c3F)N3C[C@H]5CC[C@@H]([C@H]3CCC4)N5Cc3oc(=O)oc3-c3ccccc3)c12` [Example 69, 4-(((6aR,7S,10R)-2-(3-amino-8-ethynyl-7-fluoronaphthalen-1-yl)-1-fluoro-13-(((2R,7aS)-2-fluorotetrahydro-1H-pyrrolizin-7a(5H)-yl)methoxy)-5,6,6a,7,8,9,10,11-octahydro-4H-3,11a,12,14,15-pentaaza-7,10-methanocyclohepta[4,5]cycloocta[1,2,3-de]naphthalen-15-yl)methyl)-5-phenyl-1,3-dioxol-2-one]: in experiment [1] (96 h), the EC50 stood at 0.48 nM.

For `C#Cc1c(F)ccc2cc(NCc3oc(=O)oc3C)cc(-c3nc4c5c(nc(OC[C@@]67CCCN6C[C@H](F)C7)nc5c3F)N3C[C@H]5CC[C@@H]([C@H]3CCC4)N5Cc3oc(=O)oc3C)c12` [Example 70, 4-(((5-ethynyl-6-fluoro-4-((6aR,7S,10R)-1-fluoro-13-(((2R,7aS)-2-fluorotetrahydro-1H-pyrrolizin-7a(5H)-yl)methoxy)-15-((5-methyl-2-oxo-1,3-dioxol-4-yl)methyl)-5,6,6a,7,8,9,10,11-octahydro-4H-3,11a,12,14,15-pentaaza-7,10-methanocyclohepta[4,5]cycloocta[1,2,3-de]naphthalen-2-yl)naphthalen-2-yl)amino)methyl)-5-methyl-1,3-dioxol-2-one], in experiment [1] (96 h), the EC50 is 0.31 nM. As for `C#Cc1c(F)ccc2cc(O)cc(-c3nc4c5c(nc(OC[C@@]67CCCN6C[C@H](F)C7)nc5c3F)N3C[C@H]5CC[C@@H]([C@H]3CCC4)N5Cc3oc(=O)oc3-c3ccccc3)c12` [Example 72, 4-(((6aR,7S,10R)-2-(8-ethynyl-7-fluoro-3-hydroxynaphthalen-1-yl)-1-fluoro-13-(((2R,7aS)-2-fluorotetrahydro-1H-pyrrolizin-7a(5H)-yl)methoxy)-5,6,6a,7,8,9,10,11-octahydro-4H-3,11a,12,14,15-pentaaza-7,10-methanocyclohepta[4,5]cycloocta[1,2,3-de]naphthalen-15-yl)methyl)-5-phenyl-1,3-dioxol-2-one], in experiment [1] (96 h), the EC50 was determined as 0.11 nM. With `C#Cc1c(F)ccc2cc(O)cc(-c3nc4c5c(nc(OC[C@]6(C)CN(C)CC[C@@H]6C(F)F)nc5c3F)N3C[C@H]5CC[C@@H]([C@H]3CCC4)N5Cc3oc(=O)oc3C)c12` [Example 74, 4-(((6aR,7S,10R)-13-(((3S,4S)-4-(difluoromethyl)-1,3-dimethylpiperidin-3-yl)methoxy)-2-(8-ethynyl-7-fluoro-3-hydroxynaphthalen-1-yl)-1-fluoro-5,6,6a,7,8,9,10,11-octahydro-4H-3,11a,12,14,15-pentaaza-7,10-methanocyclohepta[4,5]cycloocta[1,2,3-de]naphthalen-15-yl)methyl)-5-methyl-1,3-dioxol-2-one], in experiment [1] (96 h), the EC50 amounted to 0.06 nM.

Take `[2H]C([2H])([2H])N1CC[C@H](C(F)F)[C@](C)(C([2H])([2H])Oc2nc3c4c(nc(-c5cc(O)cc6ccc(F)c(C#C)c56)c(F)c4n2)CCC[C@@H]2[C@@H]4CC[C@H](CN32)N4Cc2oc(=O)oc2C)C1` [Example 75, 4-(((6aR,7S,10R)-13-(((3S,4S)-4-(difluoromethyl)-3-methyl-1-(methyl-d3)piperidin-3-yl)methoxy-d2)-2-(8-ethynyl-7-fluoro-3-hydroxynaphthalen-1-yl)-1-fluoro-5,6,6a,7,8,9,10,11-octahydro-4H-3,11a,12,14,15-pentaaza-7,10-methanocyclohepta[4,5]cycloocta[1,2,3-de]naphthalen-15-yl)methyl)-5-methyl-1,3-dioxol-2-one]: the EC50 in experiment [1] (96 h) is 0.08 nM. Take `C#Cc1c(F)ccc2cc(N)cc(-c3nc4c5c(nc(OC[C@]6(C)CN(C)CC[C@@H]6C(F)F)nc5c3F)N3C[C@H]5CC[C@@H]([C@H]3CCC4)N5Cc3oc(=O)oc3C)c12` [Example 76, 4-(((6aR,7S,10R)-2-(3-amino-8-ethynyl-7-fluoronaphthalen-1-yl)-13-(((3S,4S)-4-(difluoromethyl)-1,3-dimethylpiperidin-3-yl)methoxy)-1-fluoro-5,6,6a,7,8,9,10,11-octahydro-4H-3,11a,12,14,15-pentaaza-7,10-methanocyclohepta[4,5]cycloocta[1,2,3-de]naphthalen-15-yl)methyl)-5-methyl-1,3-dioxol-2-one]: the EC50 in experiment [1] (96 h) was 0.89 nM.
